How the values were obtained:
[1] = target: T1, PARP1 (Homo sapiens, UniProt P09874); assay: μHTS-TNKS-IWR2 TR-FRET binding assay, PARP1 in place of TNKS1; conditions: His6-PARP1 (full length), Biotin-IWR2 60 nM
T1 construct: or His6-PARP1 (full length)
Description: (§1) μHTS-TNKS-IWR2 TR-FRET Binding Assay
(§2) (10 μL/well in BD1536-well plate, a single point)
(§3) Tankyrase 1 (TNKS1): 184.3 μM=5.2 mg/mL His6-TNKS1, MW=28.2 KDa (construct: 1088-1327, I266M) in 20 mM Tris pH 8, 150 mM NaCl, 10% glycerol, and 0.5 mM TCEP Alternatively, in place of His6-TNKS1 can use either His6-tankyrase 2 (construct: 934-1166) (His6-TNKS2) or His6-PARP1 (full length).
(§4) Biotin-IWR2: 10 mM Biotin-IWR2 stock in DMSO, stored at −20° C.
Positive control: 10 mM […] in DMSO, stored at −20° C.
(§5) Eu-Streptavidin: 38.1 μM (2.1 mg/mL) Eu-SA (Bio #Eu-2212, Lot #N 18001-BDHO2)
(§6) APC-anti-His Ab: 8.50 μM SL-APC, 8.26 μM anti-6His antibody-SureLight APC (Columia Bioscience, Cat #D3-1711, Lot #N01010-AAH04)
(§7) Assay plate: BD 1536-well, clear/black plate (Cat #353255)
(§8) Assay buffer 1a (AB1a) for TNKS dilution: 50 mM Tris, pH 7.4, 100 mM sodium chloride solution, 1 mM magnesium chloride solution, 1 mM DL-dithiothreitol solution, 0.2 mg/mL bovine serum albumin solution, 0.025% NP-40.
(§9) Assay buffer 1b (AB1b) for Biotin-IWR2 dilution: 50 mM Tris, pH 7.4, 100 mM sodium chloride solution, 1 mM magnesium chloride solution, 1 mM DL-dithiothreitol solution, 0.2 mg/mL bovine serum albumin solution, 0.05% NP-40
(§10) Assay buffer 1c (AB1c) for compound dilution: 50 mM Tris, pH 7.4, 100 mM sodium chloride solution, 1 mM magnesium chloride solution, 1 mM DL-dithiothreitol solution, 0.2 mg/mL bovine serum albumin solution
(§11) Assay buffer 2 (AB2) for Eu/APC: 50 mM Tris, pH 7.4, 100 mM sodium chloride solution, 1 mM magnesium chloride solution, 0.2 mg/mL bovine serum albumin solution
(§12) Prepare Biotinylated IWR2 stock solution (3.33× stock) for TOTL and cpd wells: 200 nM Biotin-IWR2 in 5% DMSO/AB1b buffer
(§13) Prepare BLANK well stock solution: 5% DMSO/AB1b buffer
(§14) Prepare POSITIVE CONTROL well stock solution (3.33× stock): 200 nM XAV939 in 200 nM Biotin-IWR2/5% DMSO/AB1b buffer
(§15) Prepare TNKS1 stock solution (5× stock): 300 nM TNKS in AB1a buffer
(§16) (Alternatively, use TNKS2 or PARP1 stock solutions.)
(§17) Prepare Eu/APC stock solution (5× stock): 3.5 nM Eu-SA/50 nM APC-His6Ab in AB2 buffer
(§18) Add 25 μL/well 1.5% DMSO/AB1c buffer in each compound well to the compound concentration at 74 μM in 8.8% DMSO/AB1c buffer or in the 2 μL DMSO CONTROL wells (BLANK, TOTAL and POSITIVE wells) in the compound plate.
(§19) Transfer 3 μL/well of above solution (solution 1, 2, 3) to an empty assay plate (BD1536-well plate) as follows:
(§20) TOTAL and cpd wells: Solution 1 (Biotin-IWR2):
(§21) BLANK wells: Solution 2 (No Biotin-IWR2):
(§22) POSITIVE CONTROL wells: Solution 3 (Biotin-IWR2+XAV939)
(§23) Transfer 3 μL/well of the above diluted compound solutions or compound dilution buffer to the above assay plate.
(§24) Add 2 μL/well of 300 nM TNKS stock solution (4) to every well in the above assay plate
(§25) Centrifuge the assay plate at 2100 rpm for 2 minutes.
(§26) Incubate the assay plate at 26° C. for 30 minutes.
(§27) Add 2 μL/well 3.5 nMEu/50 nM APC solution (5) to every well in the above assay plate.
(§28) Incubate the assay plate at 26° C. for 60 minutes.
(§29) Read the assay plate immediately at excitation wavelength of 330 nm and emission wavelength of […] in time resolved fluorescence mode.
(§30) General Library compounds: 22.23 μM in 4% DMSO

[2] = target: T2, tankyrase 2 (TNKS2) (Homo sapiens, UniProt Q9H2K2); assay: μHTS-TNKS-IWR2 TR-FRET binding assay, TNKS2 in place of TNKS1; conditions: His6-TNKS2 (construct 934-1166), Biotin-IWR2 60 nM
T2 construct: His6-tankyrase 2 (construct: 934-1166) (His6-TNKS2)
Description: as §1, §2, §3, §4
Positive control: 10 mM XAV 939 in DMSO, stored at −20° C.
as §5, §6, §7, §8, §9, §10, §11, §12, §13, §14, §15, §16, §17, §18, §19, §20, §21, §22, §23, §24, §25, §26, §27, §28, §29
XAV939 (+ve control): 60 nM at ˜70% Inhibition
as §30

[3] = target: T3, Tankyrase 1 (TNKS1) (Homo sapiens, UniProt O95271); assay: μHTS-TNKS-IWR2 TR-FRET binding assay, TNKS1
T3 construct: His6-TNKS1, MW=28.2 KDa (construct: 1088-1327, I266M)
Description: as §1, §2, §4, §8, §9, §10, §11, §13, §15, §19, §20, §21, §22, §23, §24, §25, §26, §27, §28

T3 sequence (O95271 1088-1327): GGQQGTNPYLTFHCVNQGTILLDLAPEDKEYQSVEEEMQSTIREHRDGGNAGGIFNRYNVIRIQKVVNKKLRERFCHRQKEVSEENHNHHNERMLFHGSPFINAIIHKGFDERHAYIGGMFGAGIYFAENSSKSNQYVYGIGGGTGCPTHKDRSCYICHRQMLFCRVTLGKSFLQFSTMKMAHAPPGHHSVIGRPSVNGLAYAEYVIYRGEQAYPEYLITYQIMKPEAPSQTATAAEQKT
T1 sequence (P09874 whole entry): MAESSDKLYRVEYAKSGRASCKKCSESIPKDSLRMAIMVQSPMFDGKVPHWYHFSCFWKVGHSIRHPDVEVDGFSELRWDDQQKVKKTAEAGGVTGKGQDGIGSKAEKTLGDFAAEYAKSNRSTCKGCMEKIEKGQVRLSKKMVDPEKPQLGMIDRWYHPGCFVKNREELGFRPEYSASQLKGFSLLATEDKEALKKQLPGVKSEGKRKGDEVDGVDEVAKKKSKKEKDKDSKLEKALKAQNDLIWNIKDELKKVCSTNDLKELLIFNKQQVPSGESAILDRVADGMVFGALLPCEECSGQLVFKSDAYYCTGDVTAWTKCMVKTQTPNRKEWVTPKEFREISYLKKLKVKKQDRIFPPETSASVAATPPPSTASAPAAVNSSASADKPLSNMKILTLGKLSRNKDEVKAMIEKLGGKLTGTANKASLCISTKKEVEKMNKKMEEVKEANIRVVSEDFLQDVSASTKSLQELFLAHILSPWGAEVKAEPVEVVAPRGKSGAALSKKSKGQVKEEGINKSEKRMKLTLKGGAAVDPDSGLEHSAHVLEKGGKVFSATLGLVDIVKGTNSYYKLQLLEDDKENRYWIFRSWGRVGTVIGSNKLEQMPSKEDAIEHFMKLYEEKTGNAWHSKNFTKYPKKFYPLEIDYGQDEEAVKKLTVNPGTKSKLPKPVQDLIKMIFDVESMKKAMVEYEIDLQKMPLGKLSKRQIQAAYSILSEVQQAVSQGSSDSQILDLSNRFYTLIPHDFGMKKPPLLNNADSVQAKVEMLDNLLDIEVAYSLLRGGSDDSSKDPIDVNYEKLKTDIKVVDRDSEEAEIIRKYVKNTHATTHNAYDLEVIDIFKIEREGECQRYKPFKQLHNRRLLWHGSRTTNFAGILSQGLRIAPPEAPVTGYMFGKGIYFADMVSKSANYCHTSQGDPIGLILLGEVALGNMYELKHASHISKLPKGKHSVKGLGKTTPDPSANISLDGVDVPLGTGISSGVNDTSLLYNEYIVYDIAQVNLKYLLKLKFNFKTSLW
T2 sequence (Q9H2K2 934-1166): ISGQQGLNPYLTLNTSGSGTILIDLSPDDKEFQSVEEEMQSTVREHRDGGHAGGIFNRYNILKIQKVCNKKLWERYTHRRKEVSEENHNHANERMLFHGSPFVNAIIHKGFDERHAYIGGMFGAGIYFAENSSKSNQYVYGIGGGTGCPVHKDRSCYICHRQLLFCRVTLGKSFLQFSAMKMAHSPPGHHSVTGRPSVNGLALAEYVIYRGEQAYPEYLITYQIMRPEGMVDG

IC50 [1] [nM]	IC50 [2] [nM]	IC50 [3] [nM]	SMILES
> 50000	145	54	COc1ccc(-c2cn3c(Br)ccc3c(=O)[nH]2)cc1 [Example 1, 6-Bromo-3-(4-methoxy-phenyl)-2H-pyrrolo[1,2-a]pyrazin-1-one]
31200	995	232	N#Cc1ccc2c(=O)[nH]c(-c3ccc(C(F)(F)F)cc3)cn12 [Example 2, 1-Oxo-3-(4-trifluoromethyl-phenyl)-1,2-dihydro-pyrrolo[1,2-a]pyrazine-6-carbonitrile]
> 50000	1260	192	N/C(=N\O)c1ccc2c(=O)[nH]c(-c3ccc(C(F)(F)F)cc3)cn12 [Example 3, N-Hydroxy-1-oxo-3-(4-trifluoromethyl-phenyl)-1,2-dihydro-pyrrolo[1,2-a]pyrazine-6-carboxamidine]
29500	1900	770	NC(=O)c1ccc2c(=O)[nH]c(-c3ccc(C(F)(F)F)cc3)cn12 [Example 4, 1-Oxo-3-(4-trifluoromethyl-phenyl)-1,2-dihydro-pyrrolo[1,2-a]pyrazine-6-carboxylic acid amide]
> 50000	12700	6790	N=C(N)c1ccc2c(=O)[nH]c(-c3ccc(C(F)(F)F)cc3)cn12 [Example 5, 1-Oxo-3-(4-trifluoromethyl-phenyl)-1,2-dihydro-pyrrolo[1,2-a]pyrazine-6-carboxamidine]
34900	1840	1110	O=c1[nH]c(-c2ccc(C(F)(F)F)cc2)cn2c(C3=NCCN3)ccc12 [Example 6, 6-(4,5-Dihydro-1H-imidazol-2-yl)-3-(4-trifluoromethyl-phenyl)-2H-pyrrolo[1,2-a]pyrazin-1-one]
172	72	32	Cc1ccc2c(=O)[nH]c(-c3ccc(C(F)(F)F)cc3)cn12 [Example 7, 6-Methyl-3-(4-trifluoromethyl-phenyl)-2H-pyrrolo[1,2-a]pyrazin-1-one]
11400	715	17	O=c1[nH]c(-c2ccc(C(F)(F)F)cc2)cn2c(CO)ccc12 [Example 8, 6-Hydroxymethyl-3-(4-trifluoromethyl-phenyl)-2H-pyrrolo[1,2-a]pyrazin-1-one]
2740	68	68	Cc1ccc2c(=O)[nH]c(N3CCN(c4ccccc4F)CC3)cn12 [Example 9, 3-[4-(2-Fluoro-phenyl)-piperazin-1-yl]-6-methyl-2H-pyrrolo[1,2-a]pyrazin-1-one]
1250	158	56	O=c1[nH]c(-c2ccc(C(F)(F)F)cc2)cn2c(Br)ccc12 [Example 10, 6-Bromo-3-(4-trifluoromethyl-phenyl)-2H-pyrrolo[1,2-a]pyrazin-1-one]
